According to article PMC11678328, “Phosphine Oxide Indenoquinoline Derivatives: Synthesis and Biological Evaluation as Topoisomerase I Inhibitors and Antiproliferative Agents” (Molecules, 2024):

What was measured:
[1] = target: T1, human TOP1 (Homo sapiens, UniProt P11387); assay: TOP1 supercoiled plasmid DNA relaxation assay; format: biochemical; details: compounds at 100 μM, semiquantitative
T1 construct: made in house; host or cells: Saccharomyces cerevisiae TOP1 null strain RS190, plasmid pHT143 (GAL promoter)
T1 sequence (P11387 1-765): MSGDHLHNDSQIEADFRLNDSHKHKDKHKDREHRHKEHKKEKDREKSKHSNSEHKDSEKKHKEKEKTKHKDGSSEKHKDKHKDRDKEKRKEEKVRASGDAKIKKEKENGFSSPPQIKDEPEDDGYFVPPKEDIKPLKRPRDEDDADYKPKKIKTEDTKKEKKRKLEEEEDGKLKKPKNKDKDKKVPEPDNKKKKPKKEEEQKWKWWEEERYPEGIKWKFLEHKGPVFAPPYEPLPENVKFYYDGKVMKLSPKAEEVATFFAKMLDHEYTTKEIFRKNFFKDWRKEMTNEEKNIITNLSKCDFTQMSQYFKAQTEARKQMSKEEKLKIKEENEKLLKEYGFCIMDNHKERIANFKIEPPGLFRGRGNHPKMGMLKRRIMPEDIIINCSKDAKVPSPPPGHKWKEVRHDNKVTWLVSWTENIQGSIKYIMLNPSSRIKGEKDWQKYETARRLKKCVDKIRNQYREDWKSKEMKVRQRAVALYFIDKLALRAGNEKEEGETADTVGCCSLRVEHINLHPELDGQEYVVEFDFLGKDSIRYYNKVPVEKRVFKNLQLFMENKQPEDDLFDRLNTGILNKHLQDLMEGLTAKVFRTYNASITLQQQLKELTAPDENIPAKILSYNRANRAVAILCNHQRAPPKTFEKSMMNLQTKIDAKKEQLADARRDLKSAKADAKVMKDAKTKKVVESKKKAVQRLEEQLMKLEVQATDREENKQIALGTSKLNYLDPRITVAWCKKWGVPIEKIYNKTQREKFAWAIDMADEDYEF
From the text: The effect of the previously prepared compounds as TOP1 inhibitors was studied. A conventional supercoiled plasmid relaxation assay was used to determine if the newly fused tetrahydroindenoquinolines 8, more aromatic indenoquinolines 9, and carbonyl derivatives 10 with phosphine oxide substituents inhibit human TOP1 activity by converting supercoiled plasmid DNA to its relaxed form. In these experiments, compound samples were mixed with the enzyme followed by the addition of a supercoiled plasmid DNA substrate, and incubation continued for increasing time intervals (1 min, 3 min, and 5 min). The reaction was terminated by the addition of SDS. DNA relaxation products were then resolved by 1% agarose electrophoresis gel and visualized by gel red staining.
The yeast Saccaromyces cerevisiae TOP1 null strain RS190, which was used for the expression of recombinant human TOP1, was a kind gift from R. Sternglanz (State University of New York, Stony Brook, NY, USA). Plasmid pHT143, for the expression of recombinant TOP1 under the control of an inducible GAL promoter, was described. The plasmids pHT143 were transformed into the yeast S. cerevisiae strain RS190. The proteins were expressed and purified by affinity chromatography essentially as described. The protein concentrations were estimated from Coomassie blue-stained SDS/polyacrylamide gels by comparison to serial dilutions of bovine serum albumin (BSA).
TOP1 activity was assayed using a DNA relaxation assay by incubating 110 ng/mL of TOP1 with 0.5 µg of negatively supercoiled pUC18 in […] of reaction buffer (20 mM Tris HCl, 0.1 mM Na2EDTA, 10 mM MgCl2, […] acetylated BSA, and 150 mM KCl, pH 7.5). The effect of the synthesized phosphorylated derivatives 8, 9, and 10 on the TOP1 activity was measured by adding different concentrations of the compounds, at different time points, as indicated in the text. The reactions were performed at 37 °C stopped by the addition of 0.5% SDS after the indicated time intervals. The samples were protease-digested and electrophoresed in a horizontal 1% agarose gel in 1xTBE (50 mM Tris, 45 mM boric acid, 1 mM EDTA) at 25V during 18h. The gel was stained with gel red (BIOTIUM, 5 mg/mL), destained with water, and photographed under UV illumination. Since all drugs were dissolved in dimethyl sulfoxide (DMSO), a […] control sample containing the same DMSO concentration as the samples incubated with the drugs was included in all experiments.

[2] = system: MRC-5, lung fibroblast cells; assay: CCK-8 cytotoxicity assay, MRC5; format: cell-based, human; details: Homo sapiens; MRC5 non-cancerous cells, 48h, CCK-8
From the text: (§1) The cytotoxic effects of the newly synthesized diphenyl(tetrahydro-5H-indeno[2,1-c]quinolin-2-yl)phosphine oxides 8, diphenyl(7H-indeno[2,1-c]quinolin-2-yl)phosphine oxides 9, and diphenyl(7-oxo-7H-indeno[2,1-c]quinolin-2-yl)phosphine oxides 10 derivatives were studied against several human cell lines: A549 (carcinomic human alveolar basal epithelial cell), SKOV3 (human ovarian carcinoma), and HEK293 (human embryonic kidney). Furthermore, in order to analyze the selective cytotoxicity facing exclusively cancerous cell lines, toxicity against a non-cancerous cell line (MRC-5, lung fibroblast cells) was also evaluated (Table 3). The cell counting kit (CCK-8) assay was employed to assess the growth inhibition and cell proliferation inhibitory activities of the compounds, which are described in Table 3 as IC50 values.
(§2) Cells were cultured according to the supplier’s instructions. Cells were seeded in 96-well plates at a density of 1.5–3 × 10^3 cells per well and incubated overnight in 0.1 mL of media supplied with 10% Fetal Bovine Serum (Lonza) in a 5% CO2 incubator at 37 °C. On day 2, drugs were added and the samples were incubated for 48h. After treatment, 10 μL of the cell counting kit-8 was added into each well for an additional 2h incubation at 37 °C. The absorbance of each well was determined by an Automatic Elisa Reader System at 450 nm wavelength (deducting 620 nm). CPT was used as the positive control.

[3] = system: A549 (carcinomic human alveolar basal epithelial cell); assay: CCK-8 cytotoxicity assay, A549; format: cell-based; details: Homo sapiens, A549, 48 h, A549 cells, 48h, CCK-8
From the text: as §1, §2

[4] = system: SKOV3 (human ovarian carcinoma); assay: CCK-8 cytotoxicity assay, SKOV3; format: cell-based; details: SK-OV-3, SKOV3 cells, 48h
From the text: as §1, §2

[5] = system: HEK293 (human embryonic kidney); assay: CCK-8 cytotoxicity assay, HEK293; format: cell-based; details: HEK293 cells, 48h
From the text: as §1, §2

[6] = target: T1, human TOP1; assay: TOP1 supercoiled plasmid DNA relaxation assay; format: biochemical; details: 30 min reaction; compounds at 100 μM; semiquantitative

O=C1c2ccccc2-c2c1c(-c1cccc3ccccc13)nc1ccc(P(=O)(c3ccccc3)c3ccccc3)cc21 [Compound 10g, (6-(Naphth-1-yl)-7-oxo-7H-indeno[2,1-c]quinolin-2-yl)diphenylphosphine oxide]
+ (weak inhibition): TOP1 Inhibition 1 min ([1]; 1 min reaction) | TOP1 Inhibition 3 min ([1]; 3 min reaction) | TOP1 Inhibition 5 min ([1]; 5 min reaction) | TOP1 Inhibition 30 min [6]
> 50 µM: IC50 [2] | IC50 [3] | IC50 [4] | IC50 [5]
